Test results taken from patent US20070105825A1, “Concurrent drugs” (priority 2004, published 2007).

Tests used:
[1] = test system: whole blood; experiment: Improvement effect on activated state of blood coagulation (activated whole blood clotting time, Hemochron); format: cell-based, rabbit (Japanese White, male); conditions: rabbit whole blood; for significant prolonged effect on the activated whole blood clotting time to the control: independent use, 1 μM; for activated clotting time (mean ± S.E.): single application, antiplatelet drug 1 μM, control 218 ± 5.1
Protocol: Citrate blood collected from a rabbit (Japanese White, male) was used for the test as the whole blood after maintaining room temperature for 30-60 minutes. 376 μL of the whole blood, 4 μL of a dimethylsulfoxide and 20 μL of a 250 mM calcium chloride solution were poured into a test tube for measurement of activated whole blood clotting time (Hemochron test tube P214, International Technidyne Corporation). After slight stirring of the mixture, an activated whole blood clotting time was measured by a blood clotting meter (Hemochron 801, International Technidyne Corporation) as the control.

[2] = test system: thrombus formation in abdominal aorta of rats; experiment: Inhibitory effect on thrombus formation (FeCl2-induced abdominal aorta thrombus, total protein content); format: in vivo, rat (Sprague-Dawley, male); conditions: rat; for significant inhibitory effects on the thrombus formation compared with group A as control: alone: cilostazol 100 mg/kg oral or compound Id 3 mg/kg subcutaneous; for Total protein amount in thrombus: single application, control 1.52 ± 0.39
Protocol: Rats (Sprague-Dawley rats, male) were divided into four groups of A, B, C and D. 0.5% methylcellulose solution was orally administrated into the rats of groups A and B, and cilostazol (100 mg/kg) was orally administrated into the rats of groups C and D. […] Simultaneously, the all rats of groups A-D were anesthetized by intraperitoneal injection of 5 mL/kg of 20% urethane solution. […] After removing of the filter paper, each rat was left at rest for additional 25 minutes. Then, the abdominal aorta was ligated at both upper and lower ends of the thrombus induction site. All the thrombus adhering to the inside of the excised abdominal aorta were harvested and dissolved in 1 mL of 0.5 N sodium hydroxide solution as the test solution. The total protein content in the test solution was measured using Coomasie Plus Protein Assay Kit (PIERCE Corp.) as the index of the thrombus formation.

SMILES	significant prolonged effect on the activated whole blood clotting time to the control [1]	activated clotting time (mean ± S.E.) [1]	significant inhibitory effects on the thrombus formation compared with group A as control [2]	Total protein amount in thrombus ([2]; cilostazol 100 mg/kg oral, n=3)	Total protein amount in thrombus ([2]; compound Id 3 mg/kg subcutaneous, n=4)
CC(=O)Oc1ccccc1C(=O)O [Aspirin, aspirin]	showed a significant prolonged effect	215 ± 16.3 s			
O=C1CCc2cc(OCCCCc3nnnn3C3CCCCC3)ccc2N1 [Cilostazol, cilostazol]	showed a significant prolonged effect	205 ± 5.8 s	not observed	1.39 ± 0.45 mg	
CS(=O)(=O)c1ccccc1-c1ccc(CCNS(=O)(=O)c2cc(C(=N)N)ccc2O)c(OCC(=O)O)c1 [Compound Id]			not observed		0.94 ± 0.30 mg
OCCN(CCO)c1nc(N2CCCCC2)c2nc(N(CCO)CCO)nc(N3CCCCC3)c2n1 [Dipyridamole, dipyridamole]	showed a significant prolonged effect	210 ± 10.9 s			
